Results as given in patent publication US20030082226A1, “Non-steroidal antiinflammatory drug formulations for topical application to the skin” (priority 1997, published 2003).

Assay: Delivery of various NSAIDs through human skin, effect of propylene glycol, static cells (Example 8)
Assay type: in vitro ADME
Conditions: 10% enhancer; for Avg 24 Hour % Dose: ethanol:water 70:30, pH about 7, human skin; for effect of propylene glycol on total delivery (percent of original dose) at twenty four hours: 0 to 20% PG
Text: All the tested formulations included ethanol and water at a 70:30 weight ratio and were neutralized with base to a pH of about 7.

In the case of `O=C(O)Cc1ccccc1Nc1c(Cl)cccc1Cl` [Diclofenac], the “Avg 24 Hour % Dose” value (0% PG) is reported as 18.7%, the “Avg 24 Hour % Dose” value (5% PG) is reported as 29.7% and the “Avg 24 Hour % Dose” value (10% PG) is reported as 35.3%. The “Avg 24 Hour % Dose” value (20% PG) was 45.2%.
In the case of `CC(C)Cc1ccc(C(C)C(=O)O)cc1` (stereo not shown) [Ibuprofen], the “Avg 24 Hour % Dose” value (0% PG) is reported as 61.7%, the “Avg 24 Hour % Dose” value (5% PG) is reported as 57.9% and the “Avg 24 Hour % Dose” value (10% PG) is reported as 56.5%. The “Avg 24 Hour % Dose” value (15% PG) was 50.1% and the “Avg 24 Hour % Dose” value (20% PG) was 28.3%.
With `CC(C(=O)O)c1cccc(C(=O)c2ccccc2)c1` (stereo not shown) [Ketoprofen] the “Avg 24 Hour % Dose” value (0% PG) was 9.1%, the “Avg 24 Hour % Dose” value (5% PG) was 10.3% and the “Avg 24 Hour % Dose” value (10% PG) was 12.0%. The “Avg 24 Hour % Dose” value (20% PG) was 27.0%.
For `O=C(c1ccccc1)c1ccc2n1CCC2C(=O)O` (stereo not shown) [Ketorolac], the “Avg 24 Hour % Dose” value (0% PG) was 10.8%, the “Avg 24 Hour % Dose” value (5% PG) was 27.1% and the “Avg 24 Hour % Dose” value (10% PG) was 25.0%. The “effect of propylene glycol on total delivery (percent of original dose) at twenty four hours” value was “intermediate” and the “Avg 24 Hour % Dose” value (20% PG) was 19.3%.
In the case of `CN1C(C(=O)Nc2ccccn2)=C(O)c2ccccc2S1(=O)=O` [Piroxicam], the “Avg 24 Hour % Dose” value (0% PG) is reported as 66.3%, the “Avg 24 Hour % Dose” value (10% PG) is reported as 55.1% and the “effect of propylene glycol on total delivery (percent of original dose) at twenty four hours” value is reported as “substantially neutral”. The “Avg 24 Hour % Dose” value (20% PG) was 63.5%.
